The structures appear in SMILES notation. Several values for one entry are separate records, joined by “and”; a condition that tells them apart may be missing. Equal entries are not always repeated. Activity calls are given as the source filed them.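 The calls were made as follows: active = fitted curve reaches -35% activity change at a concentration below twice the top valid dose tested; inactive = the rest, including effects opposite to the expected direction.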

Test [1] in a line: EWS/Fli1-dependent A673 cell killing, confirmation, CellTiter-Glo luminescence, cherry-pick retest (AID 720587). As to conditions: A673 Ewing sarcoma viability, CellTiter-Glo ATP luminescence, 72 h. On the technique in general: In ATP-based viability assays light output follows the ATP content of the culture.
Test [2] deals with A673 Ewing sarcoma viability, CellTiter-Glo ATP luminescence, 72 h. The description is as above.

As for `Cc1csc(NC(=O)CCc2c(C)nc3cc(-c4ccc(Cl)cc4)nn3c2C)n1`, the activity change, negative = cytotoxicity in test [1] (at 26 µM (top of the series)) is 1.02% (inactive).
Consider `CCCc1nc2ccc(NC(=O)c3cccs3)cc2c(=O)n1Cc1ccccc1Cl`, for which the activity change, negative = cytotoxicity in test [1] (at 26 µM (top of the series)) is 3.49% (inactive).
The same measure, in the same setting: the result for `Nc1ccc2oc(-c3cc(Br)ccc3Cl)nc2c1` reads 2.05% (inactive).
The same measure, in the same setting: with `CCOc1ccc(NC(=O)C(=O)N/N=C\c2ccc(CNS(=O)(=O)c3ccccc3)o2)cc1` the figure was -1.27% (inactive); with `COc1ccccc1-c1cn(CC[C@H]2CC[C@@H](NC(=O)C3CCCC3)[C@@H](CO)O2)nn1`, 6.63% (inactive).
The same measure, in the same setting: with `CC(C)(C)C(=O)Nc1ccc(N=Nc2ccccc2)cc1` the figure was -13.9% (inactive); with `CC(=O)c1ccc(NC(=O)c2noc3c2CCC3)cc1`, -3.66% (inactive).
For the compound `COc1cc(OC)cc(-c2cc3nc(C)c(CCC(=O)NCc4ccccc4)c(C)n3n2)c1`, in test [1] (at 26 µM (top of the series)), the activity change, negative = cytotoxicity is 6.68% (inactive).
Same read-out and setting: the result for `C[C@H]1CN([C@@H](C)CO)C(=O)c2cc(NS(=O)(=O)c3ccc(Cl)cc3)ccc2O[C@H]1CN(C)Cc1ccc(Cl)c(Cl)c1` reads 4.93% (inactive); that for `Cc1ccc(Cc2c(-c3ccco3)nc3c(C)cc(Br)cn23)cc1`, 2.77% (inactive).
With `Cc1ccsc1/C=N/Nc1cccc(C(=O)O)c1`, the activity change, negative = cytotoxicity in test [1] (at 26 µM (top of the series)) is -8.75% (inactive).
Regarding `CCCNC(=O)N1[C@H](C#N)[C@H](c2ccc(C#Cc3ccc(F)cc3)cc2)[C@H]1CO`, the activity change, negative = cytotoxicity in test [1] (at 26 µM (top of the series)) was -13.6% (inactive).
The same measure, in the same setting: the result for `COC(=O)C[C@@H]1CC[C@@H]2[C@H](COc3ccc(NC(=O)c4cc(F)cc(F)c4)cc3C(=O)N2C)O1` reads -0.378% (inactive); that for `S=C(NCCN1CCOCC1)Nc1ccccc1Cl`, 3% (inactive).
For the compound `N#C[C@H]1[C@H](c2ccc(C#Cc3ccccc3F)cc2)[C@@H](CO)N1C(=O)C1CCCCC1`, the activity change, negative = cytotoxicity in test [1] (at 23.5 µM (top of the series)) is -7.62% (inactive).
Turning to `C[C@@H]1CN([C@H](C)CO)C(=O)c2cc(C#CCc3ccccc3)cnc2O[C@@H]1CN(C)Cc1cccc(F)c1`, in test [1] (at 26 µM (top of the series)), the activity change, negative = cytotoxicity was -13.4% (inactive).
Still for that read-out and setting: with `COc1ccc(OC)c(-c2cc(C(F)(F)F)c3c(n2)sc2c(O)cc(=O)[nH]c23)c1` the figure was -2.54% (inactive).
Regarding `CCCNC(=O)N1[C@H](C#N)[C@H](c2ccc(C#Cc3cccc(F)c3)cc2)[C@H]1CO`, the activity change, negative = cytotoxicity in test [1] (at 23.5 µM (top of the series)) was 5% (inactive).
Take `OCCN1CCN(C(=S)c2ccc(-c3ccccc3)cc2)CC1`: the activity change, negative = cytotoxicity in test [1] (at 26 µM (top of the series)) was 6.18% (inactive).
As to `COC(=O)Cc1ccc(NC(=O)c2ccccc2Cl)cc1`, in test [1] (at 26 µM (top of the series)), the activity change, negative = cytotoxicity is 5% (inactive).
Consider `C=CCOC(=O)c1sc(NC(=O)c2ccc(OC)cc2)nc1C`, for which, in test [1] (at 26 µM (top of the series)), the activity change, negative = cytotoxicity was -13% (inactive).
For `CCN1CCN(/C=N/c2nc3c(s2)CCCC3)CC1`, the activity change, negative = cytotoxicity in test [1] (at 26 µM (top of the series)) is -1.1% (inactive).
Same read-out and setting: with `C/C(=N\Nc1cccc2cccnc12)c1ccccn1` the figure was -0.624% (inactive); with `COc1cc(/C=N/NS(=O)(=O)c2ccc(C)cc2)ccc1OCc1cccc(C(=O)O)c1`, -3.14% (inactive); with `CC(C)NC(=O)N(C)C[C@@H]1Oc2cc(C#Cc3ccc(F)cc3)ccc2S(=O)(=O)N([C@H](C)CO)C[C@H]1C`, -18.2% (inactive).
Still for that read-out and setting: with `COc1ccc(Nc2oc(COc3ccccc3OC)nc2C#N)cc1` the figure was 2.48% (inactive).
With `Cc1ccc(-c2ccc3c(c2)O[C@@H](CN(C)C(=O)Nc2ccc(F)cc2)[C@H](C)CN([C@@H](C)CO)S3(=O)=O)cc1`, the activity change, negative = cytotoxicity in test [1] (at 26 µM (top of the series)) is 0.801% (inactive).
On the same count and under the same terms, the result for `COc1ccc(C(=O)OCC(=O)Nc2ccc(Cl)c(C(F)(F)F)c2)c(OC)c1OC` reads 2.74% (inactive).
Consider `O=C(Nc1ccc(NC(=O)c2cc3ccccc3o2)cc1)c1ccc2c(c1)OCCO2`, for which, in test [1] (at 26 µM (top of the series)), the activity change, negative = cytotoxicity is 7.76% (inactive).
On the same count and under the same terms, with `CCOc1ccc(C(c2c(NC(=O)c3ccccc3)sc(C)c2C)N2CCN(CCO)CC2)cc1` (stereo not drawn) the figure was 9.4% (inactive).
On the same count and under the same terms, the result for `O=C1Nc2ccccc2C1=Nc1ccc(Br)cc1` reads -3.12% (inactive); that for `O=C(Cc1nn[nH]n1)c1ccccc1O`, 0.33% (inactive); that for `CCOc1ccccc1CNC(=O)c1ccc(Sc2ccc(Cl)cc2)c(NC(C)=O)c1`, -0.342% (inactive).
With `Cc1cc(-c2nc3cc(F)ccc3s2)ccc1N`, the activity change, negative = cytotoxicity in test [1] (at 26 µM (top of the series)) is -13.6% (inactive).
Same read-out and setting: with `COc1ccccc1NS(=O)(=O)c1cc(NC(=O)c2cc3ccccc3oc2=O)ccc1C` the figure was 13% (inactive).
The same measure, in the same setting: with `CCCn1nnc(NC(=S)NC(=O)C(C)(C)C)n1` the figure was -3.83% (inactive).
The same measure, in the same setting: the result for `COc1ccc(N=C(NN)c2ccc3ccccc3n2)cc1` reads -15.8% (inactive); that for `COc1ccc(/C=C2/SC(=S)N(CCCC(=O)Nc3ccccc3C(=O)O)C2=O)cc1`, 5.45% (inactive).
On to `CC(NC(=O)c1ccco1)c1nc(-c2ccc(C(C)(C)C)cc2)no1` (stereo not drawn), for which the activity change, negative = cytotoxicity in test [1] (at 26 µM (top of the series)) is -2.68% (inactive).
Same read-out and setting: the result for `Nc1ccc2c(c1)OC1(CCCC1)O2` reads -14.9% (inactive); that for `O=C(O)c1cccc(N/N=C/c2ccc(OC(F)(F)F)cc2)c1`, 10.4% (inactive); that for `Cc1nc2cc(-c3ccc(Cl)cc3)nn2c(C)c1CCC(=O)NC(C)c1ccc2c(c1)OCCO2` (stereo not drawn), -6% (inactive).
The same measure, in the same setting: the result for `COc1ccc2nc(-c3ccc(F)cc3)sc2c1` reads -14.9% (inactive).
With `Cc1ccsc1C(=O)OCC(=O)NCCC1=CCCCC1`, the activity change, negative = cytotoxicity in test [1] (at 26 µM (top of the series)) is 2.01% (inactive).
Same read-out and setting: the result for `Cc1ccc(Cl)cc1NC(=O)Cn1cc(C(F)(F)F)cc(Cl)c1=O` reads 10.1% (inactive).
The same measure, in the same setting: the result for `C/C=C/c1ccc(C2[C@@H]3CN(C(=O)Cc4ccccc4)C[C@H]2N3)cc1` (stereo partly drawn) reads -1.54% (inactive); that for `O=C(CN1C(=O)c2ccccc2S1(=O)=O)c1ccc(F)cc1`, -6.39% (inactive).
Regarding `O=C1C(=O)N(Cc2cccs2)c2ccccc21`, the activity change, negative = cytotoxicity in test [1] (at 26 µM (top of the series)) is -4.57% (inactive).
Regarding `COc1cc(C(c2c(C)[nH][nH]c2=O)c2c(C)[nH][nH]c2=O)ccc1OC(C)C`, the activity change, negative = cytotoxicity in test [1] (at 26 µM (top of the series)) is -4.73% (inactive).
Same read-out and setting: with `Cc1[nH]c(=S)sc1Cc1ccc(Cl)c(Cl)c1` the figure was 5.33% (inactive).
As to `C[C@@H]1CN([C@@H](C)CO)C(=O)Cc2cc(NC(=O)Nc3ccc(C(F)(F)F)cc3)ccc2O[C@@H]1CN(C)Cc1ccc(C(=O)Nc2ccccc2N)cc1`, the AC35 in test [2] is 10.9 µM.
On the same count and under the same terms, with `Cc1ccc(/C=N/Nc2ccnc3cc(Cl)ccc23)c(C)c1` the figure was 6.15 µM; with `COc1ccc(C2=Nn3c([n+](C)c4ccccc43)SC2)cc1`, 20.2 µM; with `COC(=O)[C@H]1[C@H](CO)[C@H]2Cn3c(ccc(-c4ccccc4F)c3=O)[C@@H]1N2CC1CCCC1`, 17.4 µM.
Same read-out and setting: the result for `CC1(C(=O)NCc2ccco2)Cc2c(-c3cccc(C(N)=O)c3)ccnc2O1` (stereo not drawn) reads 5.1 µM; that for `COc1cc(/C=N\Nc2nc(-c3ccc(C)cc3)c(NC(C)=O)s2)ccc1O`, 14.4 µM.
Turning to `CN(Cc1cnc2nc(N)nc(N)c2n1)c1ccc(C(=O)N[C@@H](CCC(=O)O)C(=O)O)cc1`, in test [2], the AC35 is 0.0191 µM and 0.018 µM.
The same measure, in the same setting: the result for `C[C@@H]1CN([C@@H](C)CO)C(=O)Cc2cc(NC(=O)C3CCCCC3)ccc2O[C@H]1CN(C)Cc1ccc(C(=O)Nc2ccccc2N)cc1` reads 20.8 µM; that for `CC(C)CC#Cc1ccc([C@@H]2[C@@H](CO)N3CCCCN(S(=O)(=O)c4ccc(F)cc4)C[C@H]23)cc1`, 8.8 µM; that for `COc1ccc(-c2ccc3c(c2)[C@H]2[C@H](CCN2S(=O)(=O)c2ccc(OC)cc2)[C@@H](CO)N3C)cc1`, 6.76 µM.
Still for that read-out and setting: with `C[C@H]1CN([C@@H](C)CO)C(=O)c2cc(N(C)C)ccc2O[C@H]1CN(C)Cc1ccc(C(=O)Nc2ccccc2N)cc1` the figure was 8.84 µM.
On the same count and under the same terms, the result for `Cc1ccc2c(c1)C(=O)N1[C@H]3c4cc(Br)ccc4OC[C@@H]3[C@H](c3ccccc3)[C@]1(C)C(=O)N2` reads 14.5 µM.
In the case of `COc1ccc(NC(=O)N2CCCCN3[C@@H](CO)[C@H](c4ccc(C5=CCCCC5)cc4)[C@@H]3C2)cc1`, in test [2], the AC35 was 10.3 µM.
As for `COC(=O)CC1(C(=O)OC)Oc2ccc(Br)cc2C(=O)N1c1cccc(Cl)c1Cl` (stereo not drawn), the AC35 in test [2] was 14.2 µM.
On the same count and under the same terms, the result for `COc1ccc(C2=Nn3c(nnc3-c3ccccc3OC)SC2)cc1OCC1CC1` reads 4.88 µM; that for `COC(=O)C[C@@H]1CC[C@H]2[C@H](COc3ccc(NC(=O)Nc4ccc(C#N)cc4)cc3C(=O)N2C)O1`, 11.3 µM; that for `CCN1/C(=C/C(C)=C/c2sc3ccccc3[n+]2CC)Sc2ccccc21`, 1.36 µM.
With `O=C1NC(=O)N(Cc2ccco2)C(=O)/C1=C/C=C/c1ccco1`, the AC35 in test [2] was 5.61 µM.
The same measure, in the same setting: with `C[C@H](CO)N1C[C@H](C)[C@H](CN(C)Cc2ccc(C(=O)Nc3ccccc3N)cc2)Oc2ccc(N(C)C)cc2CC1=O` the figure was 3.83 µM; with `CC[C@@H]1C[C@H]2CC[C@H](O2)[C@H](C)C(=O)O[C@@H](C)C[C@@H]2CC[C@@H](O2)[C@@H](C)C(=O)O[C@H](C)C[C@H]2CC[C@H](O2)[C@H](C)C(=O)O[C@@H](C)C[C@@H]2CC[C@@H](O2)[C@@H](C)C(=O)O1`, 0.243 µM; with `CCCCC[C@H](C)N1C[C@H](COCc2ccccc2)Oc2cc(N3CC[C@@H](N(C)C)C3)ccc2S1(=O)=O`, 11.7 µM.
Take `Cc1ccc2c(=O)n3c(nc2c1)C(Cc1ccc(O)cc1)NC(=O)c1cc2ccccc2cc1-3` (stereo not drawn): the AC35 in test [2] is 7.13 µM.
On to `C[C@H](CO)N1C[C@H](C)[C@H](CN(C)Cc2ccc(C(=O)Nc3ccccc3N)cc2)Oc2ccc(N(C)C)cc2C1=O`, for which, in test [2], the AC35 is 9.49 µM.

The values above are taken from PubChem BioAssay AID720587 (Broad Institute, 2013).
